Values of other authors, collected in patent publication US6448244B1, “Water soluble azoles as broad-spectrum antifungals” (Janssen Pharmaceutica N.V., priority 1998, dated 2002).

Details: Saksena et al., Bioorg. Med. Chem. Lett. (1995), 5(2), 127-132

Q: With `CN(C)CCn1ncn(-c2ccc(N3CCN(c4ccc(OC[C@@H]5CO[C@@](Cn6cncn6)(c6ccc(F)cc6F)C5)cc4)CC3)cc2)c1=O` (relative stereo) [(3R-cis)-4-[4-[4-[4-[[5-(2,4-difluorophenyl)tetrahydro-5-(1H-1,2,4-triazol-1-ylmethyl)-3-furanyl]methoxy]phenyl]-1-piperazinyl]phenyl]-2-[2-(dimethylamino)ethyl]-2,4-dihydro-3H-1,2,4-triazol-3-one] as the compound, how does the “antifungal activity compared to SCH 51048” value read?
A: profoundly less active
